Measurements from patent US20080031866A1, “METHOD FOR MODULATING THE PHARMACOKINETICS AND METABOLISM OF A THERAPEUTIC AGENT” (priority 2006, published 2008).

Tests used:
[1] = Oral gavage pharmacokinetics, jugular and portal vein sampling, first pass metabolism; assay type: in vivo, rat; conditions: for AUC: po, 75 mg/kg; for AUC / concentration at 0 h / concentration at 0.08 h / concentration at 0.25 h / concentration at 0.33 h / concentration at 0.5 h / concentration at 0.67 h / concentration at 1 h / concentration at 1.25 h / concentration at 1.5 h / concentration at 2 h / concentration at 3 h / concentration at 4 h / concentration at 6 h / concentration at 12 h / concentration at 24 h / Cmax: rats N=4; for Cmax: read-out: Cmax average ± standard deviation
Method: Two separate IV studies were carried out using two separate lots of animals. IV-A was run on the same lot of animals as the oral gavage study and IV-B was run on the same lot of animals as the intraduodenal and intra-colonic studies.
(§1) For the oral gavage dosing, Compound 1 was prepared in neat PEG-400. For the intraduodenal and intracolonic dosing solutions, Compound 1 was added to neat Tween 80, the mixture was sonicated for thirty minutes at 45° C. until Compound 1 was completely dissolved and then deionized (DI) water was added to form a solution consisting of 20% Tween 80 and 80% DI water by weight.
For the IV and oral gavage dosing (sampling at jugular and portal vein), young adult male Sprague Dawley rats weighing 250-400 g were purchased from Hilltop Lab Animals Inc. All rat experiments were conducted under approved animal protocols. The rats for the oral gavage dosing were catheterized at Hilltop Lab Animals Inc, had two chronic catheters for sampling: jugular and portal, were housed in cages of Culex™ Automated Blood Sampler (ABS) and blood samples were collected simultaneously via both cannula and were controlled by the Culex™ ABS control software.
(§2) A quantitative method for determining the amount of (6,7-dimethoxy-2,4-dihydro-indeno[1,2-c]pyrazol-3-yl)-(3-fluoro-phenyl)-amine Compound 1 and its major metabolites, glucuronide A (Cpd 1-GluA) and glucuronide B (Cpd 1-GluB) (see Scheme A) in rat plasma was developed using phenacetin as an internal standard. [drawing 1]
(§3) The two glucuronide conjugates were prepared and purified to permit accurate quantification of the levels of intact parent Compound 1 versus Cpd 1-GluA and Cpd 1-GluB. Each standard curve for Compound 1, Cpd 1-GluA, and Cpd 1-GluB generated from rat plasma included ten concentration levels. […] The quantitative procedure for each sample included: sample preparation, HPLC separation and mass spectrometry detection.
(§4) The rat plasma was prepared using protein precipitation techniques. Reference standards and quality control samples in rat plasma for Compound 1 were transferred to a 96 deep-well plate. The precipitation solution contained 100 ng/ml of internal standard in acetonitrile. 300 μl of precipitation solution were added to 100 μl of each standard, quality control and plasma sample. Samples were vortexed for 10 mins, then centrifuged at 4500 RPM for 10 mins. 10 μl of each sample were injected for LC/MS/MS analysis.
(§5) The HPLC column chosen for the bioanalysis was purchased from Thermo Electron (Hypersil BetaBasic C18, 5 cm×2.1 mm). The eluting solvents were composed of Solvent A: 0.1% formic acid in H2O and Solvent B: 0.1% formic acid in acetonitrile. A step gradient was used and flow rate was 300 μl/min. The total run time was 3.2 mins. Solvent B was increased from 35% at 0 min to 75% at 2.1 mins and decreased back to 35% at 2.2 mins. The retention times for Compound 1, phenacetin, Cpd 1-GluA and Cpd 1-GluB were 1.1 min, 0.9 min, 1.3 min, and 1.6 min, respectively.
API3000 with a Turbo Ionspray interface from Applied Biosystems was used for the detection of Compound 1, the internal standard and major metabolites. Electrospray ionization was performed in the positive ion mode heated nebulizer with a temperature of 300° C. LC/MS/MS chromatograms were acquired in MRM (multiple reaction mode). The MRM transitions for Compound 1, the internal standard, Cpd 1-GluA and Cpd 1-GluB were from 326.3 to 190.6, 181.1 to 110.3, 502.2 to 368.3 and 502.2 to 326.4, respectively. […]

[2] = Intraduodenal dosing with and without β-glucuronidase, catheterized rat; assay type: in vivo; conditions: 10 mg/kg, rats N=6; for AUC / Cmax / concentration at 0 h / concentration at 0.25 h / concentration at 0.5 h / concentration at 1 h / concentration at 2 h / concentration at 3 h / concentration at 4 h / concentration at 5 h / concentration at 6 h: male, Sprague Dawley, rat, plasma; for AUC: read-out: AUC average ± standard deviation 0 to 6 hours; for Cmax: read-out: Cmax average ± standard deviation; for concentration at 0 h / concentration at 0.25 h / concentration at 0.5 h / concentration at 1 h / concentration at 2 h / concentration at 3 h / concentration at 4 h / concentration at 5 h / concentration at 6 h: other: intraduodenal
Method: A catheterized rat model was used in which the agent alone or agent and β-glucuronidase enzyme was administered intraduodenally or intracolonically. The intraduodenal and intracolonic dosing was intended to prevent the potential for loss of enzymatic activity when orally dosing the β-glucuronidase (e.g. by degradation in the stomach). […]
as §1
For the oral enzyme solutions, β-glucuronidase was added to the final formulation at a concentration of 57,600 units/ml.
For the intraduodenal and intracolonic dosing, male Sprague Dawley rats weighing 300-400 g were purchased from Charles River Labs. All rat experiments were conducted under approved animal protocols. The rats were catheterized at Charles River Labs and had one or more of the following chronic catheters for dosing and sampling: jugular/carotid, duodenal, and colonic. Rats were limited to only one GI catheter and one vascular catheter. For IV dosing, rats were purchased with jugular and carotid catheters for dosing in the jugular catheter and blood sampling through the carotid catheter. For intraduodenal/intracolonic dosing, rats had one of the GI catheters for dosing and a carotid catheter for blood sampling.
The surgeries were done two weeks prior to start of testing. Rats were fed 4 hours post dose administration. All rats were dosed without anesthesia and sacrificed at the end of the study.
as §2, §3, §4, §5
API3000 with a Turbo Ionspray interface from Applied Biosystems was used for the detection of Compound 1, the internal standard and major metabolites. Electrospray ionization was performed in the positive ion mode heated nebulizer with a temperature of 300° C. LC/MS/MS chromatograms were acquired in MRM (multiple reaction mode). […]

[3] = male, Sprague Dawley, rat, plasma (jugular vein sample), Compound 1 75 mg/kg oral gavage, jugular sample
[4] = male, Sprague Dawley, rat, plasma (portal vein sample), Compound 1 75 mg/kg oral gavage, portal sample
[5] = male, Sprague Dawley, rat, portal vein plasma, Compound 1 75 mg/kg oral gavage, portal sample
[6] = Compound 1 10 mg/kg intraduodenal with β-glucuronidase
[7] = Compound 1 10 mg/kg intraduodenal without enzyme

Structure (SMILES): COc1cc2c(cc1OC)-c1n[nH]c(N(c3cccc(F)c3)[C@H]3O[C@@H](C(=O)O)[C@H](O)[C@@H](O)[C@@H]3O)c1C2 [Cpd 1-GluA]
- Ratio of metabolite to Compound 1 ([1]; jugular vein, oral gavage): 78
- AUC ([1]; male, Sprague Dawley, rat, plasma (jugular vein sample), Compound 1 75 mg/kg oral gavage, jugular sample, read-out: AUC average ± standard deviation 0 to 24 hours): 117 µg·h/mL
- AUC ([1]; male, Sprague Dawley, rat, plasma (jugular vein sample), Compound 1 75 mg/kg oral gavage, jugular sample, read-out: AUC average ± standard deviation 0 to infinite hours): 169 µg·h/mL
- concentration at 0 h [1, 3]: 2.2 ng/mL
- concentration at 0.08 h [1, 3]: 2570 ng/mL
- concentration at 0.25 h [1, 3]: 12400 ng/mL
- concentration at 0.33 h [1, 3]: 16100 ng/mL
- concentration at 0.5 h [1, 3]: 15700 ng/mL
- concentration at 0.67 h [1, 3]: 14700 ng/mL
- concentration at 1 h [1, 3]: 14300 ng/mL
- concentration at 1.25 h [1, 3]: 11700 ng/mL
- concentration at 1.5 h [1, 3]: 11700 ng/mL
- concentration at 2 h [1, 3]: 11100 ng/mL
- concentration at 3 h [1, 3]: 6480 ng/mL
- concentration at 4 h [1, 3]: 3750 ng/mL
- concentration at 6 h [1, 3]: 4290 ng/mL
- concentration at 12 h [1, 3]: 5170 ng/mL
- concentration at 24 h [1, 3]: 2470 ng/mL
- Cmax [1, 3]: 17600 ng/mL
- concentration at 0.67 h [1, 4]: 26000 ng/mL
- concentration at 1 h [1, 4]: 11700 ng/mL
- concentration at 1.25 h [1, 4]: 15100 ng/mL
- concentration at 1.5 h [1, 4]: 12200 ng/mL
- concentration at 2 h [1, 4]: 14700 ng/mL
- concentration at 3 h [1, 4]: 10700 ng/mL
- concentration at 4 h [1, 4]: 7500 ng/mL
- concentration at 6 h [1, 4]: 11600 ng/mL
- concentration at 12 h [1, 4]: 8000 ng/mL
- Tmax ([1]; male, Sprague Dawley, rat, plasma, rats, Compound 1 75 mg/kg oral gavage): 54 min
- AUC ([1]; male, Sprague Dawley, rat, portal vein plasma, Compound 1 75 mg/kg oral gavage, portal sample, read-out: AUC average ± standard deviation 0 to 24 hours): 190 µg·h/mL
- AUC ([1]; male, Sprague Dawley, rat, portal vein plasma, Compound 1 75 mg/kg oral gavage, portal sample, read-out: AUC average ± standard deviation 0 to infinite hours): 271 µg·h/mL
- concentration at 0 h [1, 5]: 1.3 ng/mL
- concentration at 0.08 h [1, 5]: 9460 ng/mL
- concentration at 0.25 h [1, 5]: 18900 ng/mL
- concentration at 0.33 h [1, 5]: 22400 ng/mL
- concentration at 0.5 h [1, 5]: 17400 ng/mL
- concentration at 24 h [1, 5]: 5070 ng/mL
- Cmax [1, 5]: 29200 ng/mL
- Systemic exposure of Glu A relative to Glu B ([1]; oral gavage dosing): ~66 times
- Mean ratio of metabolite to Compound 1 ([1]; portal system, oral gavage): 20
- AUC [2, 6]: 8.94 ± 2.14 µg·h/mL
- Cmax [2, 6]: 6450 ng/mL
- AUC [2, 7]: 1.22 ± 0.371 µg·h/mL
- Cmax [2, 7]: 717 ± 171 ng/mL
- concentration at 0 h [2, 6]: 0 ng/mL
- concentration at 0.25 h [2, 6]: 6450 ng/mL
- concentration at 0.5 h [2, 6]: 4820 ng/mL
- concentration at 1 h [2, 6]: 3860 ng/mL
- concentration at 2 h [2, 6]: 812 ± 426 ng/mL
- concentration at 3 h [2, 6]: 462 ± 208 ng/mL
- concentration at 4 h [2, 6]: 480 ± 107 ng/mL
- concentration at 5 h [2, 6]: 420 ± 74.1 ng/mL
- concentration at 6 h [2, 6]: 462 ± 113 ng/mL
- concentration at 0 h [2, 7]: 0 ng/mL
- concentration at 0.25 h [2, 7]: 666 ± 198 ng/mL
- concentration at 0.5 h [2, 7]: 687 ± 178 ng/mL
- concentration at 1 h [2, 7]: 463 ± 164 ng/mL
- concentration at 2 h [2, 7]: 118 ± 36.3 ng/mL
- concentration at 3 h [2, 7]: 66.6 ± 42 ng/mL
- concentration at 4 h [2, 7]: 88.2 ± 53.9 ng/mL
- concentration at 5 h [2, 7]: 83.1 ± 23.2 ng/mL
- concentration at 6 h [2, 7]: 90.2 ± 28.1 ng/mL
- AUC average ± standard deviation 0 to 6 hours [2, 6]: 8,723.2 ± 2,132.6 ng · hr/ml
- AUC average ± standard deviation 0 to 6 hours [2, 7]: 1,172.7 ± 361.2 ng · hr/ml
